Assay results taken from patent publication US20190276495A1 (priority 2016, published 2019).

Tests used:
BALB/cAJc mice = settings: mouse, in vivo, iv
Balb/c mice = settings: mouse, in vivo, ip

| Substance | IgG (anti-MAP antibody in sera) (BALB/cAJc mice) | IgG (anti-MAP antibody in sera) (Balb/c mice) | IgM antibody titer against Ebola 1 (Balb/c mice) | IgM (anti-MAP antibody in sera) (BALB/cAJc mice) |
| --- | --- | --- | --- | --- |
| Core-[PEG-IKKADGSECLP]4 [Ebola 1 MAP4] | increase in IgG was seen only in the 100-μg administration group | no increase | one mouse showed an evident increase, and two mice showed mild increases |  |
| Core-[PEG-FPRCRYVHK]4 [Ebola 2 MAP4] | no increase |  |  | no increase |
